# Where a name gives a salt, the structure may show the parent alone. Read-outs that look alike come from different tables or passages of the source.
# Assays:
# Target C = assay: RT-qPCR splicing assay, gene panel, Target C canonical junction (CJ) mRNA; format: cell-based; settings: Homo sapiens, read-out: Target C CJ IC50
# Description: Compounds described herein were used to modulate RNA transcript abundance in cells. The expression of a target mRNA was measured by detecting the formation of an exon-exon junction in the canonical transcript (CJ). A compound mediated exon-inclusion event was detected by observing an increase in formation of a new junction with an alternative exon (AJ). Real-time qPCR assays were used to detect these splicing switches and interrogate the potency of various compounds towards different target genes. A high-throughput real time quantitative PCR (RT-qPCR) assay was developed to measure these two isoforms of the mRNA (CJ and AJ) for exemplary genes, such as HTT, SMN2, and MYB, together with a control housekeeping gene, GAPDH or GUSB or PPIA, used for normalization. Briefly, the A673 or K562 cell line was treated with various compounds described herein (e.g., compounds of Formula (I)). After treatment, the levels of the HTT, MYB, or SMN2 mRNA targets were determined from each sample of cell lysate by cDNA synthesis followed by qPCR.
# The A673 cell line was cultured in DMEM with 10% FBS. Cells were diluted with full growth media and plated in a 96-well plate (15,000 cells in 100 ul media per well). The plate was incubated at 37° C. with 5% CO2 for 24 hours to allow cells to adhere. An 11-point 3-fold serial dilution of the compounds was made in DMSO then diluted in media in an intermediate plate. Compounds were transferred from the intermediate plate to the cell plate with the top dose at a final concentration of 10 uM in the well. Final DMSO concentration was kept at or below 0.25%. The cell plate was returned to the incubator at 37° C. with 5% CO2 for an additional 24 hours.
# The K562 cell line was cultured in IMDM with 10% FBS. For K562, cells were diluted with full growth media and plated in either a 96-well plate (50,000 cells in 50 uL media per well) or a 384-well plate (8,000-40,000 cells in 45 uL media per well). An 11-point 3-fold serial dilution of the compounds were made in DMSO then diluted in media in an intermediate plate. Compound was transferred from the intermediate plate to the cell plate with the top dose at a final concentration of 10 uM in the well. Final DMSO concentration was kept at or below 0.25%. Final volume was 100 uL for 96-well plate and 50 uL for 384-well plate. The cell plate was then placed in an incubator at 37° C. with 5% CO2 for 24 hours.
# The cells were then gently washed with 50 uL-100 uL cold PBS before proceeding to addition of lysis buffer. 30 uL-50 μL of room temperature lysis buffer with DNAse I (and optionally RNAsin) was added to each well. Cells were shaken/mixed thoroughly at room temperature for 5-10 minutes for lysis to take place and then 3 uL-5 μL of room temperature stop solution was added and wells were shaken/mixed again. After 2-5 minutes, the cell lysate plate was transferred to ice for RT-qPCR reaction setup. The lysates could also be frozen at −80° C. for later use.
# In some cases, a direct lysis buffer was used. An appropriate volume of 3× lysis buffer (10 mM Tris, 150 mM NaCl, 1.5%-2.5% Igepal and 0.1-1 U/uL RNAsin, pH 7.4) was directly added to either K562 or A673 cells in media and mixed by pipetting 3 times. The plates were then incubated at room temperature with shaking/rocking for 20-50 minutes to allow for lysis to take place. After this time, the cell lysate plate was transferred to ice to set up for the RT-qPCR reactions. The lysates could also be frozen at −80° C. for later use.
# To set up 10 uL RT-qPCR reactions, cell lysates were transferred to 384-well qPCR plates containing the master mix according to the table below. The plates were sealed, gently vortexed, and spun down before the run. The volumes were adjusted accordingly in some instances where the reaction was carried in 20 μL. The table below summarizes the components of the RT-qPCR reactions:
# The RT-qPCR reaction was performed using a QuantStudio (ThermoFisher) under the following fast cycling conditions. […]
# K562 cells = assay: Cell Titer Glo 2.0 cell viability assay; format: cell-based; settings: Homo sapiens, 500 cells/well, 72 hours
# Description: Compounds described herein were screened for toxicity in K562 (human chronic myelogenous leukemia) and SH-SY5Y (human neuroblastoma) cells using a Cell Titer Glo 2.0 assay. • Promega CellTiter-Glo® 2.0 Cell Viability Assay (cat #G9241) • Corning 384-well TC-treated microplates (cat #3570) Cells were plated at 500 cells/well (K562 cells) in 45 μL of IMDM supplemented with 10% FBS in a 384-well opaque plate. Wells containing only medium were used as a blank control. Test compounds (e.g., compounds of Formula (I), (II), or (III)) were first serially diluted in DMSO then diluted 1:100 with IMDM+10% FBS. The final concentration of DMSO was 0.1% in each well. The cells were incubated for 72 hours at 37° C. and 5% CO2 before assaying with Cell Titer Glo 2.0 reagent.
# [1] = decrease in CJ mRNA levels, larger panel of genes, Table 3
IC50 (Target C; [1]) [µM],GI50 (K562 cells) [µM],Compound,IC50 (Target C) [µM]
1 to 10,1 to 10,"Cn1cc2cc(-c3cc(F)c4nn(C5CCNCC5)nc4c3)cc(F)c2n1 [Compound 103, 4-fluoro-6-(7-fluoro-2-methyl-indazol-5-yl)-2-(4-piperidyl) benzotriazole]",–
1 to 10,1 to 10,"CCN1CCC(n2cc3cc(-c4cc(F)c5nn(C)cc5c4)cc(F)c3n2)CC1 [Compound 104, 2-(1-ethyl-4-piperidyl)-7-fluoro-5-(7-fluoro-2-methyl-indazol-5-yl)indazole]",–
0.1 to 1,0.1 to 1,"Cn1cc2cc(-c3ccc4nn(C5CCNCC5)cc4c3)cc(F)c2n1 [Compound 105, 7-fluoro-2-methyl-5-[2-(4-piperidyl)indazol-5-yl]indazole]",–
0.1 to 1,0.1 to 1,"Cn1cc2cc(-c3ccc4nn(C5CCNCC5)cc4n3)c(O)c(F)c2n1 [Compound 107, 7-fluoro-2-methyl-5-[2-(4-piperidyl)pyrazolo [4,3-b]pyridin-5-yl]indazol-6-ol]",–
1 to 10,0.1 to 1,"Cn1cc2cc(-c3cc(F)c4nn(C5CCNC6(CC6)C5)cc4c3)cc(F)c2n1 (stereo not drawn) [Compound 108, 2-(4-azaspiro[2.5]octan-7-yl)-7-fluoro-5-(7-fluoro-2-methyl-indazol-5-yl)indazole]",–
0.1 to 1,0.1 to 1,"Cc1c(O)c(-c2ccc3nn(C4CCNCC4)cc3n2)cc2cn(C)nc12 [Compound 109, 2,7-dimethyl-5-[2-(4-piperidyl)pyrazolo[4,3-b]pyridin-5-yl]indazol-6-ol]",–
1 to 10,1 to 10,"Cn1cc2cc(-c3ccc4nn(C5CCNCC5)cc4n3)c(O)cc2n1 [Compound 110, 2-methyl-5-[2-(4-piperidyl)pyrazolo[4,3-b]pyridin-5-yl]indazol-6-ol]",–
> 10,1 to 10,"Cc1c(O)c(-c2ccc3nn(C4CCNCC4)nc3n2)cc2cn(C)nc12 [Compound 113, 2,7-dimethyl-5-[2-(4-piperidyl)triazolo[4,5-b]pyridin-5-yl]indazol-6-ol]",–
1 to 10,1 to 10,"Cc1cc(-n2cc3cc(C4CCNCC4)cc(F)c3n2)cc2cn(C)nc12 [Compound 115, 2-(2,7-dimethylindazol-5-yl)-7-fluoro-5-(4-piperidyl)indazole]",–
> 10,1 to 10,"Cc1cc(-n2cc3cc(N4CCNCC4)cc(F)c3n2)cc2cn(C)nc12 [Compound 117, 2-(2,7-dimethylindazol-5-yl)-7-fluoro-5-piperazin-1-yl-indazole]",–
> 10,> 10,"Cc1nc2c(C)cc(-n3cc4cc(N5CCNCC5)cc(F)c4n3)cc2o1 [Compound 119, 6-(7-fluoro-5-piperazin-1-yl-indazol-2-yl)-2,4-dimethyl-1,3-benzoxazole]",–
> 10,1 to 10,"Cc1cn2nc(-n3cc4cc(C5CCNCC5)cc(F)c4n3)cc(C)c2n1 [Compound 120, 6-[7-fluoro-5-(4-piperidyl)indazol-2-yl]-2,8-dimethyl-imidazo[1,2-b]pyridazine]",–
> 10,1 to 10,"Cc1cc(-n2cc3cc(N4CCNCC4)ccc3n2)cc2cn(C)nc12 [Compound 121, 2,7-dimethyl-5-(5-piperazin-1-ylindazol-2-yl)indazole]",–
1 to 10,1 to 10,"Cc1nc2c(C)c(O)c(-c3cc(F)c4nn(C5CCNCC5)cc4c3)cc2o1 [Compound 123, 6-[7-fluoro-2-(4-piperidyl)indazol-5-yl]-2,4-dimethyl-1,3-benzoxazol-5-ol]",–
0.1 to 1,0.1 to 1,"Cc1cn2nc(-c3cc(F)c4nn(C5CCNCC5)cc4c3)cc2c(C)n1 [Compound 124, 2-[7-fluoro-2-(4-piperidyl)indazol-5-yl]-4,6-dimethyl-pyrazolo[1,5-a]pyrazine]",–
0.1 to 1,0.1 to 1,"Cc1cn2cc(-c3cc(F)c4nn(C5CCNCC5)cc4c3)cc(C)c2n1 [Compound 125, 5-(2,8-dimethylimidazo[1,2-a]pyridin-6-yl)-7-fluoro-2-(4-piperidyl)indazole]",–
1 to 10,> 10,"Cc1c(O)c(-c2cc(F)c3nn(C4CCNCC4)cc3c2)cc2cn(C)nc12 [Compound 126, 5-[7-fluoro-2-(4-piperidyl)indazol-5-yl]-2,7-dimethyl-indazol-6-ol]",–
0.1 to 1,0.1 to 1,"Cc1cn2cc(-c3cc(F)c4nn(C5CCNCC5)cc4c3)cc(Cl)c2n1 [Compound 127, 5-(8-chloro-2-methylimidazo[1,2-a]pyridin-6-yl)-7-fluoro-2-(piperidin-4-yl)-2H-indazole hydrochloride salt]",–
0.1 to 1,0.1 to 1,"Cc1cn2cc(-c3cc(F)c4nn(C5CCNCC5)cc4c3)cc(F)c2n1 [Compound 129, 7-fluoro-5-(8-fluoro-2-methylimidazo[1,2-a]pyridin-6-yl)-2-(piperidin-4-yl)-2H-indazole]",–
0.1 to 1,0.1 to 1,"Cn1cc2cc(-c3cc(F)c4nn(C5CCNCC5)cc4c3)cc(C#N)c2n1 [Compound 130, 5-[7-fluoro-2-(4-piperidyl)indazol-5-yl]-2-methyl-indazole-7-carbonitrile]",–
0.1 to 1,–,"Cc1cn2nc(-c3cc4cn(C5CCNCC5)nc4c(O)n3)cc(C)c2n1 [Compound 139, 5-(2,8-dimethylimidazo[1,2-b]pyridazin-6-yl)-2-(4-piperidyl)-6H-pyrazolo[3,4-c]pyridin-7-one]",–
> 10,–,Cn1cc2cc(-c3cc(Cl)c4nn(C5CCNCC5)cc4n3)c(O)cc2n1 [Compound 141],–
0.1 to 1,–,"Cc1cn2nc(-c3cc(F)c4nn(C5CCN(C)CC5)cc4c3)cc(C)c2n1 [Compound 150, 6-[7-fluoro-2-(1-methyl-4-piperidyl)indazol-5-yl]-2,8-dimethyl-imidazo[1,2-b]pyridazine]",–
–,–,"Cc1cn2nc(-c3cc(F)c4nn(C5CCN(C6CCC6)CC5)cc4c3)cc(C)c2n1 [Compound 151, 6-[2-(1-cyclobutyl-4-piperidyl)-7-fluoro-indazol-5-yl]-2,8-dimethyl-imidazo [1,2-b] pyridazine]",< 0.1
0.1 to 1,–,Cc1cn2nc(-c3cc(F)c4nn(C5CCN(CCF)CC5)cc4c3)cc(C)c2n1 [Compound 152],–
> 10,–,"Cc1cn2nc(-c3cc4cn(C5CCNCC5)nc4c(OCc4ccccc4)n3)cc(C)c2n1 [Compound 153, 6-[7-benzyloxy-2-(4-piperidyl)pyrazolo [3,4-c]pyridin-5-yl]-2,8-dimethyl-imidazo[1,2-b]pyridazine]",–

Compound,IC50 (Target C; [1]) [µM],GI50 (K562 cells) [µM],IC50 (Target C) [µM]
"Cc1cn2nc(-c3cc(F)c4nn(C5CCNCC5)cc4c3)cc(C)c2n1 [Compound 122, 6-(7-fluoro-2-(piperidin-4-yl)-2H-indazol-5-yl)-2,8-dimethylimidazo [1,2-b]pyridazine hydrochloride salt]",–,< 0.1,< 0.1

# — patent publication US20250082633A1, “COMPOUNDS AND METHODS FOR MODULATING SPLICING” (REMIX THERAPEUTICS INC., priority 2021, published 2025)
